Measured values: US12428408B2, “Fused heterocyclic mescaline derivatives” (Enveric Biosciences Canada Inc., priority 2022, dated 2025)
Read-outs that look alike come from different tables or passages of the source.

Tests used:
[1] = test system: Human NT2/D1 precursor cells (NT2/D1); assay: Neuroplastogenicity assay using human model (NT2) neurons; format: cell-based; conditions: RA-treated NT2 cells, 1 μM, 48 hours, vs 0.1% DMSO
Method: The compound with formula A(XXXII) was assayed for neuroplastogenic potential using the following procedure. Human NT2/D1 precursor cells (NT2/D1) were purchased from the American Type Culture Collection (ATCC, Manassas, VA, USA). The neuronal differentiation was carried out as previously described (Roloff et al., 2015, PLOS ONE e0118536:1-14; Roloff et al., 2013, BMC Neuroscience 14:141-155) with minor modifications. First, NT2/D1 cells were seeded in T-25 suspension culture flasks (REF #690190, Greiner bio-one, Germany). Each flask contained a minimum of 5×10^6 cells in 10 ml of DMEM/F12 supplemented with 10% fetal bovine serum (FBS), 1% penicillin and streptomycin and 10 μM retinoic acid (RA medium) to start neuronal differentiation. The cells were cultured for 3 days in free floating medium. At the end of the incubation, cells were trypsinized and collected by centrifugation, mechanically dispersed, and counted. Counted cells were seeded on Poly D-Lysine (PDL) coated cover slips (12 mm; diameter round, Fisher Scientific; GG-12-PDL) containing minimum of 0.1×10^5 cells in culture medium without RA. The next day, culture medium was replaced with RA medium containing 2% of FBS. These cells were cultured for 5 days, with a change of RA medium two days later. For the neuronal outgrowth assay, after cells had successfully attached and established under coverslips, the RA medium was replaced with one of the following: (1) test molecules at one of two different concentrations (10 μm or 1 μm); (2) positive control ROCK inhibitor Y-27632, (Dihydrochloride, Sigma-Aldrich); (2) positive control ibuprofen (14883-1G; Sigma-Aldrich), or (4) negative control culture medium containing 2% of FBS. Cells under these conditions were incubated for 48 hours under standard conditions (37° C., 5% CO2) in an incubator prior to the immunofluorescent assay.
For the immunofluorescent assay, the treated cells housed under coverslips were collected after 48 hours of drug treatments. These coverslips washed with calcium chloride-free and magnesium chloride-free phosphate buffered saline (PBS) pH 7.4 (Gibco, #70011-044) and fixed using paraformaldehyde (PFA) 4% in PBS (#J61899, thermoscientific) for 15 min at room temperature (RT) and washed three times with 0.01% of Triton-X100 in PBS (PBST) to remove remaining PFA and to permeabilize the cells. Unspecific binding sites were blocked with 5% Bovine Serum Albumin (BSA) solution (#9048-46-8, Millipore) in PBST for 60 minutes at RT. Rabbit monoclonal antibody β-III-Tubulin (1:5,000, ab52623, Abcam) was applied overnight (O/N) at 4° C. […] Finally, the immunofluorescence images were detected by using Olympus VS110 slide scanner microscope. […]

[2] = molecular target: 5-HT2A receptor (Homo sapiens, UniProt P28223); assay: 5-HT2A receptor radioligand competition assay (SPA)
Chain of 5-HT2A receptor (P28223 whole entry): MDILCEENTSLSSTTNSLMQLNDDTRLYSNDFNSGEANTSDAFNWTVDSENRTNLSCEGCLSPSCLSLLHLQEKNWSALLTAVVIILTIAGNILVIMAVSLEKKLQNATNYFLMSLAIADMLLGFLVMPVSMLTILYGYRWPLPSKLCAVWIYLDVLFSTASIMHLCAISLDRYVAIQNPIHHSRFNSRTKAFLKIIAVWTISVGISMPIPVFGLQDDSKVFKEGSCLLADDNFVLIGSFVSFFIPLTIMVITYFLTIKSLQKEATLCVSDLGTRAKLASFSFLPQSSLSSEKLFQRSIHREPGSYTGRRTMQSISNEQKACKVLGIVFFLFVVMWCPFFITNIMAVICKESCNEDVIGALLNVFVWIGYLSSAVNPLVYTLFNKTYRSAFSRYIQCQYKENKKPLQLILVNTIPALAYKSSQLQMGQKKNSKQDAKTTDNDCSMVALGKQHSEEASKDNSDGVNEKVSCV

[3] = molecular target: T1, 5-HT1D (r) (Rattus norvegicus, UniProt P28565); assay: Competition assay to measure binding affinity at 5-HT1D receptor; conditions: test ligand 10 μM; [3H]serotonin 1 nM
T1 construct: host or cells: CHO cells
T1 sequence (P28565 whole entry): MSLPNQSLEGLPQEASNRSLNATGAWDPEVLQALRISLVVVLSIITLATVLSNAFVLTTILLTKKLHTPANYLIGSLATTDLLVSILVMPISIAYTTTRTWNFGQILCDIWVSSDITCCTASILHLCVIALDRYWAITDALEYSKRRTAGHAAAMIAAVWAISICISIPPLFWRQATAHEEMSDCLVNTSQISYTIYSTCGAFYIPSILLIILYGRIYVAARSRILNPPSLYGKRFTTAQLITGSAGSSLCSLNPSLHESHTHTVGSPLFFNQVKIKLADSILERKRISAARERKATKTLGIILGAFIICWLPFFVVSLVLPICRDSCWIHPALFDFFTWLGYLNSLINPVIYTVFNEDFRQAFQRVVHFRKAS

[4] = molecular target: T2, NET (h) (Homo sapiens, UniProt P23975); assay: Competition assay to measure binding affinity at norepinephrine transporter (NET); conditions: test ligand 10 μM; [3H]nisoxetine 1 nM
T2 construct: host or cells: CHO cells

[5] = molecular target: T3, human serotonin transporter (SERT) (Homo sapiens, UniProt P31645); assay: biochemical; format: binding
T3 construct: purchased PerkinElmer RBHSTM400UA
T3 sequence (P31645 whole entry): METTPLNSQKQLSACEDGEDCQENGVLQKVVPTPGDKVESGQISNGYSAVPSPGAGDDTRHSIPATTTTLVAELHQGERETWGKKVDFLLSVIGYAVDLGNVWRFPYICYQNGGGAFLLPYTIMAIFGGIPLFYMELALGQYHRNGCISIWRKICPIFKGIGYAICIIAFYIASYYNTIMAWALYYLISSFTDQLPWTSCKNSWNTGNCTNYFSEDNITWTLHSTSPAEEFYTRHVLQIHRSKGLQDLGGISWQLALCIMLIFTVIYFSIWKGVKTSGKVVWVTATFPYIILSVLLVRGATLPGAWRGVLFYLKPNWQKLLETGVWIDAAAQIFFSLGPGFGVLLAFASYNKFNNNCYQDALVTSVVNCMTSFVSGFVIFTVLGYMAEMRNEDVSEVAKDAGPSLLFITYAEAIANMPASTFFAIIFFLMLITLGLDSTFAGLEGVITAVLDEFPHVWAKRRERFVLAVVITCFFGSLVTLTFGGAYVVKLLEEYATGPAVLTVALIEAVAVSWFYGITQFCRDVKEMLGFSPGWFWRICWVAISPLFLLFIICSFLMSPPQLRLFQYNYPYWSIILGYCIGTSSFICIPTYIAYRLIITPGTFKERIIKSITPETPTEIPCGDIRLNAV

[6] = molecular target: T4, 5-HT2C (h) (Homo sapiens, UniProt P28335); assay: Competition assay to measure binding affinity at 5-HT2C receptor; conditions: test ligand 10 μM; [125I](±)DOI 0.1 nM
T4 construct: host or cells: HEK-293 cells
T4 sequence (P28335 33-458): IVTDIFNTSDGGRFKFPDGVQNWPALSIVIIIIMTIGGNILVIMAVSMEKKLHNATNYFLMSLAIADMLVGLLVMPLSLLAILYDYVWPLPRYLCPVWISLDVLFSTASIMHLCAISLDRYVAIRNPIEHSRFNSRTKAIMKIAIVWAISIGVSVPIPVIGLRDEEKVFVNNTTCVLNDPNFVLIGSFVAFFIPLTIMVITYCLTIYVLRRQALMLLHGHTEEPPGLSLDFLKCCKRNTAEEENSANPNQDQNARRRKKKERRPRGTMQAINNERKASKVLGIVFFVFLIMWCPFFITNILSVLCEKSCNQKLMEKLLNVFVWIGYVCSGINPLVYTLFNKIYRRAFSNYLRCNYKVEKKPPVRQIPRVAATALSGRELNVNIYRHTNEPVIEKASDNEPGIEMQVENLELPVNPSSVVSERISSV

[7] = molecular target: T5, 5-HT7 (h) (Homo sapiens, UniProt P34969); assay: Competition assay to measure binding affinity at 5-HT7 receptor; conditions: test ligand 10 μM; [3H]LSD 4 nM
T5 construct: host or cells: HEK-293 cells
T5 sequence (P34969 whole entry): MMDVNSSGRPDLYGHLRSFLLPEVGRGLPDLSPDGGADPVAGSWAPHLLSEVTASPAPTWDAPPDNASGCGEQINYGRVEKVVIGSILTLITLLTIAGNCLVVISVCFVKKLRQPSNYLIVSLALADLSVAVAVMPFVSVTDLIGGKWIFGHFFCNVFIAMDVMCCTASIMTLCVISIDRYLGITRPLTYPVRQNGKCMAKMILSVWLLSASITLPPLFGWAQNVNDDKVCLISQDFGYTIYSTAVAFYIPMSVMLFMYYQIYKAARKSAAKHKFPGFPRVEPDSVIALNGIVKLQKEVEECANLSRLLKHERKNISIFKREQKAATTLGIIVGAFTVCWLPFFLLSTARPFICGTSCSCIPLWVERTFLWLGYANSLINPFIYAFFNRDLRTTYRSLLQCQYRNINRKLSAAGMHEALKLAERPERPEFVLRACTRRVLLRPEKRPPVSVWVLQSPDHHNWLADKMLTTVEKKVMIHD

[8] = molecular target: T6, alpha2A (h) (Homo sapiens, UniProt P08913); assay: Competition assay to measure binding affinity at alpha2A receptor; conditions: test ligand 10 μM, [3H]RX 821002 1 nM; for inhibition at 10 µM: read-out: α-2A, percent of control-specific binding
T6 construct: host or cells: CHO cells
T6 sequence (P08913 1-465): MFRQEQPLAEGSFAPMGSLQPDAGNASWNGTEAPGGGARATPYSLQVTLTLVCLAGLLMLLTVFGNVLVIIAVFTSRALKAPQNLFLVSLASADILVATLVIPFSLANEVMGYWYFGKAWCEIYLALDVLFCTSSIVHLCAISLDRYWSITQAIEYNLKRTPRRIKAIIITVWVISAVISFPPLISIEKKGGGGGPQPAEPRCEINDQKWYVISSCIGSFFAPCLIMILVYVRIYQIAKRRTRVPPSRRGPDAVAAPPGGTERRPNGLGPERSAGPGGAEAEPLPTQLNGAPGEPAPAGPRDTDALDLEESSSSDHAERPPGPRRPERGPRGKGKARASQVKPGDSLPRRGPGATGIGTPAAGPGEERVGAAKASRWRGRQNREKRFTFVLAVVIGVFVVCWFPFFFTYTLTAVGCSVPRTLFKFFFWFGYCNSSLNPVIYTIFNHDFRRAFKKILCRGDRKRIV

[9] = molecular target: T7, MT1 (ML1A) (h) (Homo sapiens, UniProt P48039); assay: Competition assay to measure binding affinity at MT1 receptor; conditions: test ligand 10 μM; [125I]2-iodomelatonin 0.01 nM
T7 construct: host or cells: CHO cells
T7 sequence (P48039 whole entry): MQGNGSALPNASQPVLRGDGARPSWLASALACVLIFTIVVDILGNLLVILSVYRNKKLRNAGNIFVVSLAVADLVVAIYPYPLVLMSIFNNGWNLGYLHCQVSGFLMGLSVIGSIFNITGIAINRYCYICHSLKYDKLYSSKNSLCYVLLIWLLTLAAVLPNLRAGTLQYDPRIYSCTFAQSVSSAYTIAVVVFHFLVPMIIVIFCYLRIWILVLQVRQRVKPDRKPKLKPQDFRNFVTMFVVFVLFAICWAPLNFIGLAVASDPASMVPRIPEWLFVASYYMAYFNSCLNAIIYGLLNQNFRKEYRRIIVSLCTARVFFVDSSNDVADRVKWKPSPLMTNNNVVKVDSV

[10] = test system: C57BL/6-Elite male and female mice; assay: Ear-Scratch Response (ESR) assay; format: in vivo, mouse; conditions: i.p. 6 mg/kg, 15-to-30-minute window following drug administration
[11] = molecular target: T8, 5-HT1B (h) (Homo sapiens, UniProt P28222); assay: Competition assay to measure binding affinity at 5-HT1B receptor; conditions: test ligand 10 μM; [3H]GR125743 1 nM
T8 construct: host or cells: Chem-1 (RBL) cells
T8 sequence (P28222 whole entry): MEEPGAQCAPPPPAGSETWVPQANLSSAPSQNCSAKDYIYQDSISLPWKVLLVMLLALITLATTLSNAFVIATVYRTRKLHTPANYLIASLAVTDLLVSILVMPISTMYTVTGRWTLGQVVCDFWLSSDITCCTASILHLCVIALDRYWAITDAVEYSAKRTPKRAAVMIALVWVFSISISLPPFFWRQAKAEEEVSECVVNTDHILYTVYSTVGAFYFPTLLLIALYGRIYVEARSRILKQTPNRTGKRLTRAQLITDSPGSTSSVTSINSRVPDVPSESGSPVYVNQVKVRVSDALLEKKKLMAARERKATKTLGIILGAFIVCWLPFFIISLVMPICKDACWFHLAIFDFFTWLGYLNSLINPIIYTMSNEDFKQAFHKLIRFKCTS

[12] = molecular target: T9, D2 (h) (Homo sapiens, UniProt P14416); assay: Competition assay to measure binding affinity at D2L receptor; conditions: test ligand 10 μM; [3H]methylspiperone 0.3 nM
T9 construct: host or cells: HEK-293 cells
T9 sequence (P14416 whole entry): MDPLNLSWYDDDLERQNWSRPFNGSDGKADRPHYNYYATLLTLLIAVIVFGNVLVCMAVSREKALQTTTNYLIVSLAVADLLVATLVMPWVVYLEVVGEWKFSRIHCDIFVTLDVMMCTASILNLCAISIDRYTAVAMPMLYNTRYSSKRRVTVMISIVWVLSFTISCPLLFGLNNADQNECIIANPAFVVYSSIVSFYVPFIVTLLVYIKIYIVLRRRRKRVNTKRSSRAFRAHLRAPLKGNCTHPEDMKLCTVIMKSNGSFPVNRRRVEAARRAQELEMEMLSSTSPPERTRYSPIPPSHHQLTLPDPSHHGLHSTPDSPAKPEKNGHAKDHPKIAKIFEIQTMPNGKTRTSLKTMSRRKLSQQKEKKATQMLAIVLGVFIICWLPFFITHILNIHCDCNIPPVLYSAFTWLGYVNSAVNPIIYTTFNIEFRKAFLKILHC

[13] = test system: C57BL/6-Elite male and female mice; assay: Head Twitch Response (HTR) assay; format: in vivo, mouse; conditions: i.p. 6 mg/kg, 15-to-30-minute window following drug administration
[14] = molecular target: T10, D3 (h) (Homo sapiens, UniProt P35462); assay: Competition assay to measure binding affinity at D3 receptor; conditions: test ligand 10 μM; [3H]methylspiperone […]
T10 construct: host or cells: CHO cells
T10 sequence (P35462 whole entry): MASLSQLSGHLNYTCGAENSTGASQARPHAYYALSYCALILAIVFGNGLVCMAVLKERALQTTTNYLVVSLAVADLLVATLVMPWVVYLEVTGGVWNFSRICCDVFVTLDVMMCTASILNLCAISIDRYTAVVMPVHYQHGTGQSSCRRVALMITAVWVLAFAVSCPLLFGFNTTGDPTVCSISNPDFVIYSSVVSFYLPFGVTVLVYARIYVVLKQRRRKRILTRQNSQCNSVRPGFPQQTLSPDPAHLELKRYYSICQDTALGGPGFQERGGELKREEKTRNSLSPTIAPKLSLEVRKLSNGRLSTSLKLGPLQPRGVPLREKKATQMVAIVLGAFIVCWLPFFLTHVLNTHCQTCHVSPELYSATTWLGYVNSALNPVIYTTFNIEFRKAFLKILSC

[15] = molecular target: T11, 5-HT1A receptor (Homo sapiens, UniProt P08908); assay: 5-HT1A receptor radioligand competition assay (SPA); format: binding
T11 construct: purchased Perkin Elmer 6110501400UA
T11 sequence (P08908 1-422): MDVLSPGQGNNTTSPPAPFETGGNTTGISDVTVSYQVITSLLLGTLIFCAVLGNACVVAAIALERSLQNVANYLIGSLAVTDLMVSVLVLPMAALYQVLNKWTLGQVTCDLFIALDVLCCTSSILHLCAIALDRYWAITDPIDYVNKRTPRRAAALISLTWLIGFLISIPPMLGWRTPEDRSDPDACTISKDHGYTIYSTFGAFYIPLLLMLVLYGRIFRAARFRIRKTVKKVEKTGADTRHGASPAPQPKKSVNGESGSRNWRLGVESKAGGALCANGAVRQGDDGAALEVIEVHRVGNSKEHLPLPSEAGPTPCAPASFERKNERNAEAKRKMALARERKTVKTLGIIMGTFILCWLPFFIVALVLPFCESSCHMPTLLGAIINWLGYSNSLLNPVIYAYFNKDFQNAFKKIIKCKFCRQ

[16] = molecular target: T12, 5-HT2B (h) (Homo sapiens, UniProt P41595); assay: Competition assay to measure binding affinity at 5-HT2B receptor; conditions: test ligand 10 μM; [3H]mesulergine 2 nM
T12 construct: host or cells: CHO cells
T12 sequence (P41595 whole entry): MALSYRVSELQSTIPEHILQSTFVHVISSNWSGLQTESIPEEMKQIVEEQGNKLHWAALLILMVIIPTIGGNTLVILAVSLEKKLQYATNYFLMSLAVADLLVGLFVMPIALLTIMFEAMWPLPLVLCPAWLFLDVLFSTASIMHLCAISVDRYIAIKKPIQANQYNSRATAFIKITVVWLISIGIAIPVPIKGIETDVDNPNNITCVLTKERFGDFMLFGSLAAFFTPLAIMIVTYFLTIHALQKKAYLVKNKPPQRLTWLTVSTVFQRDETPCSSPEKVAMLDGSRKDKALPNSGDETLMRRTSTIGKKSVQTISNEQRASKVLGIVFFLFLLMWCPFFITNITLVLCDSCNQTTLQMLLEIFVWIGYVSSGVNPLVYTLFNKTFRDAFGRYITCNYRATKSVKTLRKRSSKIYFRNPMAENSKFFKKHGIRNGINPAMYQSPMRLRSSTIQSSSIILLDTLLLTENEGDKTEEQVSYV

[17] = molecular target: T13, DAT (h) (Homo sapiens, UniProt Q01959); assay: Competition assay to measure binding affinity at dopamine transporter (DAT); conditions: test ligand 10 μM; [3H]BTCP 4 nM
T13 construct: host or cells: CHO cells
T13 sequence (Q01959 whole entry): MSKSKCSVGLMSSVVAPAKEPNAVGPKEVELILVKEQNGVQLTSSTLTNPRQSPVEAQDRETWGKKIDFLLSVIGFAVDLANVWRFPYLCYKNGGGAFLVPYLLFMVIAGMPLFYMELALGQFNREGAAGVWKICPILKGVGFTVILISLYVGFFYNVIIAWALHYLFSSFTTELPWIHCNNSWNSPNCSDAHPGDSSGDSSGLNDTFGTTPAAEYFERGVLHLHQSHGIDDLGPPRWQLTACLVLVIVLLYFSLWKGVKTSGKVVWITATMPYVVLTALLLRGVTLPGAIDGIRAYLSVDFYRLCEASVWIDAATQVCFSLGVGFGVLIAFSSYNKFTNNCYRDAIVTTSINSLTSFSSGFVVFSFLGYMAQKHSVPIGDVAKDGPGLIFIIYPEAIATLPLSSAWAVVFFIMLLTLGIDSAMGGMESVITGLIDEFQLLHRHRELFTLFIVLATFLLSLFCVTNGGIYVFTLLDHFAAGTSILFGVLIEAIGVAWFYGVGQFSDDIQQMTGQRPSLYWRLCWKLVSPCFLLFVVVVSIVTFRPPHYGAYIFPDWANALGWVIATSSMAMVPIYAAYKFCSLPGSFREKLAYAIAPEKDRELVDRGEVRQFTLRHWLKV

[18] = competition with 0.5 nM 8-hydroxy-DPAT [3H], test compound 3 nM to 1 mM, read-out: 5-HT1A, Ki

| Structure (SMILES) | neurite outgrowth (β-III-tubulin immunofluorescence) compared to negative control [1] | Ki [2] | HT1D, percent of control-specific binding [3] | NET, percent of control-specific binding [4] | Ki [5] | HT2C, percent of control-specific binding [6] | HT7, percent of control-specific binding [7] | inhibition at 10 µM [8] | MT1, percent of control-specific binding [9] | incidences of ESR relative to vehicle-treated control mice [10] | HT1B, percent of control-specific binding [11] | D2, percent of control-specific binding [12] | incidences of HTR relative to vehicle-treated control mice [13] | D3, percent of control-specific binding [14] | HT2B, percent of control-specific binding [16] | DAT, percent of control-specific binding [17] | Ki [15, 18] | other results |
| --- | --- | --- | --- | --- | --- | --- | --- | --- | --- | --- | --- | --- | --- | --- | --- | --- | --- | --- |
| CC(C)Cc1ccc(C(C)C(=O)O)cc1 (stereo not shown) [ibuprofen, reference compound] | strong signs of neurite outgrowth | – | – | – | – | – | – | – | – | – | – | – | – | – | – | – | – | – |
| CC(Cc1ccc2c(c1)OCO2)NCCc1c[nH]c2ccccc12 (stereo not shown) [A(XXXI)] | strong signs of neurite outgrowth | – | – | – | – | – | – | – | – | – | – | – | – | – | – | – | – | – |
| CC(Cc1ccc2c(c1)OCO2)NC1CCC1 (stereo not shown) [A(I)] | – | 517 µM | 0% | 62% | 1.1 µM | 28% | 5% | 35% | 2% | Elevated incidences of ESR | 0% | 15% | Elevated incidences of HTR | 24% | 37% | 98% | – | Ki [15]: 20.8 µM |
| CCOc1c(OC)cc(CCN)cc1OC [escaline] | – | – | 42% | 6% | – | 95% | 16% | – | 0% | Elevated incidences of ESR | 0% | 5% | Elevated incidences of HTR | 0% | 81% | 0% | 12.4 µM | Ki ([2]; read-out: 5-HT2A, Ki, competition with 1 nM [3H]ketanserin, test compound 3 nM to 1 mM): 61 µM; SERT binding, binding curve in words [5]: bind SERT to varying degrees; Ki ([5]; read-out: SERT, Ki): 113 µM; α-2A, percent of control-specific binding [8]: 45%; 5-HT1A receptor binding, binding curve in words ([15]; FIGS. 35C-35L): binding to 5-HT1A receptor |
| c1cc2c(cc1CCN1CCOCC1)OCO2 [A(VII)] | – | 6 µM | 0% | 0% | 29.9 µM | 4% | 14% | 5% | 0% | Elevated incidences of ESR | 0% | 3% | Elevated incidences of HTR | 4% | 12% | 18% | 24.1 µM | – |
